Assay results: PubChem BioAssay AID248 (DTP/NCI, 2004)
Values joined by “and” are separate entries in the source; they are usually repeats but may differ in a detail not shown here. Equal entries are not always repeated. Inconclusive results and toxic doses are left out. Cut-off read from the data, not from the text of the source: active = T/C of 150% or more; inactive = T/C below 125%.

System: L1210 leukemia ip in BDF1 mice, survival T/C
Experiment: NCI In Vivo Anticancer Drug Screen. Data for tumor model L1210 Leukemia (intraperitoneal) in B6D2F1 (BDF1) mice
Conditions: endpoint: mean survival time, higher = longer survival
Summary of the method: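 Ratio derived from survival: compound-dosed mice over vehicle-dosed mice, all bearing a transplantable tumor.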

[1] = dose: 100.0 mg/kg/injection, schedule: Q01DX001 (ip), vehicle: saline
[2] = dose: 400.0 mg/kg/injection, schedule: Q01DX001 (ip), vehicle: saline
[3] = dose: 50.0 mg/kg/injection, schedule: Q01DX009 (ip), vehicle: saline
[4] = dose: 100.0 mg/kg/injection, schedule: Q01DX009 (ip), vehicle: saline
[5] = dose: 100.0 mg/kg/injection, schedule: Q04DX003 (ip), vehicle: saline
[6] = dose: 100.0 mg/kg/injection, schedule: Q04DX003 (ip), vehicle: saline with Tween-80
[7] = dose: 200.0 mg/kg/injection, schedule: Q04DX003 (ip), vehicle: saline with Tween-80
[8] = dose: 400.0 mg/kg/injection, schedule: Q04DX003 (ip), vehicle: saline with Tween-80
[9] = dose: 100.0 mg/kg/injection, schedule: Q01DX009 (ip), vehicle: saline with Tween-80
[10] = dose: 200.0 mg/kg/injection, schedule: Q01DX009 (ip), vehicle: saline with Tween-80
[11] = dose: 200.0 mg/kg/injection, schedule: Q01DX001 (ip), vehicle: saline
[12] = dose: 25.0 mg/kg/injection, schedule: Q01DX009 (ip), vehicle: saline
[13] = dose: 50.0 mg/kg/injection, schedule: Q04DX002 (ip), vehicle: saline
[14] = dose: 100.0 mg/kg/injection, schedule: Q04DX002 (ip), vehicle: saline

Measured: T/C

c1ccc(CN2CCn3nccc32)cc1
inactive: dose: 25.0 mg/kg/injection, schedule: Q01DX009 (ip), vehicle: other 104 % of control | dose: 50.0 mg/kg/injection, schedule: Q01DX009 (ip), vehicle: other 96 % of control | dose: 100.0 mg/kg/injection, schedule: Q01DX009 (ip), vehicle: other 104 % of control | dose: 200.0 mg/kg/injection, schedule: Q01DX009 (ip), vehicle: other 95 % of control

CN(C)C(C#N)C(=O)c1ccccc1 (stereo not drawn)
inactive: [1] 97 % of control and 98 % of control | [2] 93 % of control

CC(=O)Nc1ncnn1C(C)=O
inactive: [3] 97 % of control | [4] 96 % of control | [5] 98 % of control | dose: 200.0 mg/kg/injection, schedule: Q01DX009 (ip), vehicle: saline 97 % of control | dose: 200.0 mg/kg/injection, schedule: Q04DX003 (ip), vehicle: saline 95 % of control

CC1(C)C2CC1C(O)(C(=O)O)C2 (stereo not drawn)
inactive: dose: 75.0 mg/kg/injection, schedule: Q01DX001 (ip), vehicle: acetone 94 % of control | dose: 150.0 mg/kg/injection, schedule: Q01DX001 (ip), vehicle: acetone 97 % of control | dose: 300.0 mg/kg/injection, schedule: Q01DX001 (ip), vehicle: acetone 96 % of control

CC(=O)/C(N=Nc1ccc(S(=O)(=O)c2ccc(N=N/C(C(C)=O)=C(/C)O)cc2)cc1)=C(\C)O
inactive: [6] 100 % of control | [7] 93 % of control | [8] 96 % of control

CCCCCC#CCO
inactive: [6] 108 % of control | [7] 101 % of control

NC(CC(=O)O)c1nn[nH]n1 (stereo not drawn)
inactive: [9] 102 % of control | [6] 105 % of control | [10] 98 % of control | [7] 102 % of control | [8] 103 % of control

CCCN1C(=O)CC(=O)NC1=O
inactive: [1] 102 % of control | [11] 100 % of control | [2] 100 % of control

NC(Cc1ccc(Cl)cc1)C(=O)O (stereo not drawn)
inactive: dose: 50.0 mg/kg/injection, schedule: Q01DX001 (ip), vehicle: water 95 % of control | dose: 100.0 mg/kg/injection, schedule: Q01DX001 (ip), vehicle: water 98 % of control | dose: 200.0 mg/kg/injection, schedule: Q01DX001 (ip), vehicle: water 93 % of control | dose: 400.0 mg/kg/injection, schedule: Q01DX001 (ip), vehicle: water 93 % of control | dose: 800.0 mg/kg/injection, schedule: Q01DX001 (ip), vehicle: water 90 % of control | dose: 1200.0 mg/kg/injection, schedule: Q01DX001 (ip), vehicle: water 96 % of control | dose: 1600.0 mg/kg/injection, schedule: Q01DX001 (ip), vehicle: water 96 % of control | dose: 2000.0 mg/kg/injection, schedule: Q01DX001 (ip), vehicle: water 93 % of control

CCOC(=O)c1[nH]cnc1/N=N/N(C)C1CCCCC1
inactive: dose: 85.0 mg/kg/injection, schedule: Q01DX015 (ip), vehicle: carboxymethylcellulose (CMC) 103 % of control | dose: 100.0 mg/kg/injection, schedule: Q01DX001 (ip), vehicle: carboxymethylcellulose (CMC) 98 % of control | dose: 114.0 mg/kg/injection, schedule: Q01DX015 (ip), vehicle: carboxymethylcellulose (CMC) 107 % of control | dose: 200.0 mg/kg/injection, schedule: Q01DX001 (ip), vehicle: carboxymethylcellulose (CMC) 109 % of control | dose: 400.0 mg/kg/injection, schedule: Q01DX001 (ip), vehicle: carboxymethylcellulose (CMC) 102 % of control

CN1CCN(C(=O)Nc2cccc(Cl)c2Cl)CC1
inactive: [12] 92 % of control | [3] 87 % of control | [4] 97 % of control and 102 % of control

O=C(O)c1cc(N=Nc2ccccc2C(=O)O)ccc1O
inactive: dose: 100.0 mg/kg/injection, schedule: Q04DX003 (ip), vehicle: Klucel (hydroxypropylcellulose) (HPC) 92 % of control | dose: 200.0 mg/kg/injection, schedule: Q04DX003 (ip), vehicle: Klucel (hydroxypropylcellulose) (HPC) 94 % of control | dose: 400.0 mg/kg/injection, schedule: Q04DX003 (ip), vehicle: Klucel (hydroxypropylcellulose) (HPC) 112 % of control

O=NN(Cc1ccccc1)NC(=O)c1ccccc1
inactive: dose: 100.0 mg/kg/injection, schedule: Q04DX002 (ip), vehicle: gum acacia 96 % of control | dose: 200.0 mg/kg/injection, schedule: Q04DX002 (ip), vehicle: gum acacia 104 % of control

Cc1ccc(C(=O)/C=C/c2ccccc2O)cc1
inactive: [9] 100 % of control | [6] 105 % of control | [10] 98 % of control | [7] 100 % of control | dose: 400.0 mg/kg/injection, schedule: Q01DX009 (ip), vehicle: saline with Tween-80 94 % of control | [8] 98 % of control

CN=C1N[N+]2=CCCCC2S1 (stereo not drawn)
inactive: dose: 25.0 mg/kg/injection, schedule: Q04DX002 (ip), vehicle: saline 86 % of control | dose: 40.0 mg/kg/injection, schedule: Q01DX009 (ip), vehicle: saline 95 % of control | [13] 111 % of control | dose: 60.0 mg/kg/injection, schedule: Q01DX009 (ip), vehicle: saline 104 % of control | dose: 80.0 mg/kg/injection, schedule: Q01DX009 (ip), vehicle: saline 107 % of control | [14] 99 % of control

Cc1nc(N)nc(N)c1Oc1ccc(Cl)cc1
inactive: dose: 30.0 mg/kg/injection, schedule: Q01DX Z (ip), vehicle: saline 96 % of control | dose: 60.0 mg/kg/injection, schedule: Q01DX Z (ip), vehicle: saline 98 % of control | dose: 120.0 mg/kg/injection, schedule: Q01DX Z (ip), vehicle: saline 102 % of control

Cc1ccc(Cl)cc1NC(=O)c1ccc([N+](=O)[O-])cc1
inactive: dose: 50.0 mg/kg/injection, schedule: Q01DX009 (ip), vehicle: saline with Tween-80 91 % of control | [9] 86 % of control

CCNCCCN
inactive: [12] 97 % of control | dose: 25.0 mg/kg/injection, schedule: Q04DX003 (ip), vehicle: saline 115 % of control | [3] 101 % of control | dose: 50.0 mg/kg/injection, schedule: Q04DX003 (ip), vehicle: saline 115 % of control | [4] 103 % of control | [5] 93 % of control and 103 % of control

CCCCCCCCCCCCCCCCCCCCCCCC(=O)NCCc1c[nH]c2ccc(O)cc12 (tested in a mixture with another compound)
inactive: [6] 96 % of control | [7] 96 % of control | [8] 86 % of control

Nc1ccc(OCCNC(=O)Nc2ccc(S(=O)(=O)F)cc2)c(Cl)c1
inactive: dose: 75.0 mg/kg/injection, schedule: Q01DX001 (ip), vehicle: other 96 % of control | dose: 150.0 mg/kg/injection, schedule: Q01DX001 (ip), vehicle: other 105 % of control | dose: 300.0 mg/kg/injection, schedule: Q01DX001 (ip), vehicle: other 98 % of control

S=P(c1cccs1)(c1cccs1)c1cccs1
inactive: [6] 93 % of control | [7] 96 % of control | [8] 86 % of control

Nc1nc(N)c(-c2ccc(Cl)c(Cl)c2)c(CCc2ccc(S(=O)(=O)F)cc2)n1
inactive: dose: 100.0 mg/kg/injection, schedule: Q01DX009 (ip), vehicle: Klucel (hydroxypropylcellulose) (HPC) 112 % of control | dose: 200.0 mg/kg/injection, schedule: Q01DX009 (ip), vehicle: Klucel (hydroxypropylcellulose) (HPC) 98 % of control

O=C(c1ccccc1)c1c(-c2ccccc2)c(C(=O)c2ccccc2)c2ccccc2c1Cl
inactive: dose: 6.25 mg/kg/injection, schedule: Q01DX009 (ip), vehicle: water 96 % of control | dose: 12.5 mg/kg/injection, schedule: Q01DX009 (ip), vehicle: water 97 % of control | dose: 25.0 mg/kg/injection, schedule: Q01DX009 (ip), vehicle: water 94 % of control and 117 % of control | dose: 50.0 mg/kg/injection, schedule: Q01DX009 (ip), vehicle: water 94 % of control and 97 % of control | dose: 100.0 mg/kg/injection, schedule: Q01DX009 (ip), vehicle: water 101 % of control | dose: 200.0 mg/kg/injection, schedule: Q01DX009 (ip), vehicle: water 101 % of control | dose: 400.0 mg/kg/injection, schedule: Q01DX009 (ip), vehicle: water 97 % of control

CCN(CC)S(=O)(=O)c1cccc(C(=O)CC(O)(C(F)(F)F)C(F)(F)F)c1
inactive: [6] 94 % of control | [7] 102 % of control | [8] 108 % of control

CCOC(=O)/C(C)=N/Nc1cc(Cl)ccc1O
inactive: [1] 95 % of control | [11] 94 % of control | [2] 106 % of control

CCn1cc(C(=O)O)c(=O)c2cccc(OC)c21
inactive: [13] 86 % of control | [14] 115 % of control | dose: 200.0 mg/kg/injection, schedule: Q04DX002 (ip), vehicle: saline 100 % of control
